Reference: US20220062299A1, “USE OF GLUCOCORTICOID STEROIDS IN PREVENTING AND TREATING CONDITIONS OF MUSCLE WASTING, AGING AND METABOLIC DISORDER” (NORTHWESTERN UNIVERSITY, priority 2018, published 2022)

Tested on: Wildtype (WT) mice fed high-fat chow
Assay: Diet-induced obesity, wildtype mice on high-fat chow, 8 weeks
Format: in vivo, mouse
Description: Glucose was measured in blood (first drop from tail venipuncture) or serum (5 μl of 1:2 dilution) with an AimStrip Plus glucometer system (Germaine Laboratories, San Antonio, Tex.) and expressed as mg/dl values. Lactate was measured in blood (second drop from tail venipuncture) or serum (5 μl of 1:2 dilution) with a Lactate Plus reader (Nova Biomedical, Waltham, Mass.) and expressed as mM values. Fasting glycemia was measured in mice after 4 hours fasting (7 AM-11 AM). Glucose, insulin and pyruvate tolerance tests were conducted after 4 hours fasting in individual cages immediately after baseline fasting glucose monitoring. Mice were injected with either 1 g/kg glucose (#D8375-1 g; Millipore Sigma, St Louis, Mo.), or 0.5 U/kg insulin (#12585014; Thermo Fisher, Waltham, Mass.), or 2.5 g/kg pyruvate (#P5280-25 g; Millipore Sigma, St Louis, Mo.) in 200 μl intraperitoneal injections, and glucose was then monitored by tail venipuncture at 10 min, 20 min, 30 min, 60 min, 120 min after injection. All glucose and pyruvate tolerance tests were conducted blinded to treatment groups.
MRI scan. Magnetic resonance imaging (MRI) scans to determine fat and lean mass ratios (% of total body weight) were conducted in non-anesthetized, non-fasted mice at 2 PM using the EchoMRI-100H Whole Body Composition analyzer (EchoMRI, Houston, Tex.). Mice were weighed immediately prior to MRI scan. Before each measurement session, system was calibrated using the standard internal calibrator tube (canola oil). Mice were typically scanned in sample tubes dedicated to mice comprised between 20 g and 40 g body mass. Data were collected through built-in software EchoMRI version 140320. Data were analyzed when hydration ratio >85%. MRI scans were conducted blinded to treatment groups.
Muscle function, whole-body plethysmography, echocardiography. Forelimb grip strength was monitored using a meter (Cat #1027SM; Columbus Instruments, Columbus, Ohio) blinded to treatment groups. Animals performed ten pulls with 5 seconds rest on a flat surface between pulls. Immediately before sacrifice, in situ tetanic force from tibialis anterior muscle was measured using a Whole Mouse Test System (Cat #1300A; Aurora Scientific, Aurora, ON, Canada) with a 1N dual-action lever arm force transducer (3000-LR, Aurora Scientific, Aurora, ON, Canada) in anesthetized animals (0.8 I/min of 1.5% isoflurane in 100% O2). Tetanic isometric contraction was induced with following specifications: initial delay, 0.1 sec; frequency, 200 Hz; pulse width, 0.5 msec; duration, 0.5 sec; using 100 mA stimulation (Quattrocelli et al., 2015). Length was adjusted to a fixed baseline of 50 mN resting tension for all muscles/conditions. Fatigue analysis was conducted by repeating tetanic contractions every 10 seconds until complete exhaustion of the muscle (50 cycles). Time of contraction was assessed as time to max tetanic value within the 0.0-0.5 sec range of each tetanic contraction, while time of relaxation was assessed as time to 90% min tetanic value within the 0.5-0.8 sec range of every tetanus. […] Data was recorded for a total of 15 minutes broken into 3 consecutive 5-minute periods. […] Cardiac function was assessed by echocardiography, which was conducted under anesthesia (0.8 L/min of 1.5% vaporized isoflurane in 100% O2) on mice between 2 and 5 days before sacrifice. […]

C[C@]12C=CC(=O)C=C1CC[C@@H]1[C@@H]2C(=O)C[C@@]2(C)[C@H]1CC[C@]2(O)C(=O)CO [prednisone, Prednisone]
gain of hyperglycemia (fasting blood glucose over time) (weekly prednisone): reduced | lean mass retention (weekly prednisone): improved | gain of body weight and fat mass (weekly prednisone 1 mg/kg i.p., vs vehicle): slightly but significantly reduced | body-wide glucose homeostasis (glucose and insulin tolerance tests) (weekly prednisone, endpoint): improved | grip strength, tetanic force production and aerobic exercise capacity (weekly prednisone, endpoint): improved
